One experiment concerns the target T1, human 5-HT1a receptors (Homo sapiens, UniProt P08908).
T1 construct: expressed in transfected cells; host or cells: CHO K1 cells
T1 sequence (P08908 1-422): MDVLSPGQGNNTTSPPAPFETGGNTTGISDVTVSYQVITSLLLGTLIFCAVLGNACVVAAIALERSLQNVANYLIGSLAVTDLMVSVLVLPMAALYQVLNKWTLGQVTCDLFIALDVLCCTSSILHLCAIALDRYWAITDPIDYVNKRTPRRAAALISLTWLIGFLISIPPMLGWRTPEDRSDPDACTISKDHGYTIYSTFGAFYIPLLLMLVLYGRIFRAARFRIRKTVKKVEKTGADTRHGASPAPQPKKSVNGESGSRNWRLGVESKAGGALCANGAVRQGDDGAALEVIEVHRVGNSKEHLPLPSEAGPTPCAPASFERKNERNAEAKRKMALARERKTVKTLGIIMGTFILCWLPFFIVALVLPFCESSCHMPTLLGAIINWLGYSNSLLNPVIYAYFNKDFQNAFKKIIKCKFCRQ
The experiment can be described thus: Competition radioligand binding, h5-HT1a. How it is done:
(§1) Cells and Membrane Preparation: HEK 293 cells stably expressing human 5-HT7B (h5-HT7b) receptors were grown in Dulbecco's Modified Eagle's Medium (DMEM; Gibco) without sodium pyruvate and containing 4.5 g/L glucose, L-glutamine/penicillin-streptomycin (Gemini), 10% fetal bovine serum and 250 mg/l of the antibiotic, G418 (Geneticin) as previously described (Jasper, J. R., Kosaka, A., To, Z. P., Chang, D. J. and Eglen, R. M. (1997) Cloning, expression and pharmacology of a truncated splice variant of the human 5-ht7 receptor (h5-ht7b). Br. J. Pharmacol. 122(1):126-132.). Cell pellets were homogenized in approximately 50 mL of homogenization buffer (buffer A) containing: 50 mM Tris (pH 7.4), 2 mM EGTA, 0.32 M sucrose, 10 μM PMSF, 1 μg/mL leupeptin, 5 μg/mL Pepstatin A, and 5 μg/mL aprotinin using an UltraTurax homogenizer (Tekmar Company, Cincinnati, Ohio) at 80% maximum setting three times for 10 sec. Cell pellets were centrifuged at 4° C. at 1,500×g for 10 min in a Beckman GS-6R centrifuge. Pellets were resuspended in buffer A, homogenized and centrifuged as described above. Pooled supernatants were transferred to centrifuge bottles and centrifuged at 4° C. at 20,000×g for 30 min in a Beckman J2-HS centrifuge. Cell pellets were resuspended in buffer A and were centrifuged at 4° C. at 20,000×g for 30 min. Cell pellets were resuspended in buffer A and stored at −70° C. in aliquots of 2.5 mg/mL total membrane protein. Total membrane protein was assessed utilizing a BCA kit (Pierce; Rockford, Ill.). Membranes containing human 5-HT1a or 5HT2a receptors expressed in CHO K1 cells were prepared as described above.
(§2) Radioligand Binding Assays: For 5-HT7 saturation binding experiments, HEK-293 cell membranes expressing h5-HT7 receptors (5-10 μg membrane protein/well) were incubated in duplicate with [^3H]5-CT (approximately 0.2 nM) in binding assay buffer containing: 50 mM HEPES (pH 7.4), 0.5 mM EDTA, 10 mM MgCl2, 10 μM pargyline to inhibit monoamine oxidase activity, and 0.1% sodium ascorbate, in a final volume of 200 μL in 96-well polypropylene plates for 2 hours at 37° C. Nonspecific binding was determined by incubating membranes with 1 μM 5-HT. All radioligand binding assays were stopped by rapid filtration onto 96-well GF/C filter plates (Packard) soaked in 0.1% polyethylenimine. Filters were washed three times with ice-cold phosphate-buffered saline (PBS) wash buffer containing 50 mM NaPO4 (pH 7.4), 0.9% NaCl, 2 mM MgCl2 and 0.02% NaN3. The filters were then counted using liquid scintillation in a Packard Topcount scintillation counter.
(§3) Data Analysis: Radioligand binding experiments were analyzed with Prism™ (Graphpad, San Diego, Calif.), a computer graphics and statistics program. IC50 values and Hill slopes for compounds were generated by nonlinear regression using Prism™. Values for Ki calculated from IC50 values by the Cheng and Prussoff equation (Cheng, Y. and Prusoff, W. H., (1973), “Relationship between the inhibition constant (Ki) and the concentration of inhibitor which causes 50 per cent inhibition (I50) of an enzymatic reaction.” Biochemical Pharmacol. 22:3099-3108).

In experiment [1] the target is T2, human 5-HT6 (h5-HT6) receptors (Homo sapiens, UniProt P50406).
T2 construct: purchased Receptor Biology, Inc. (Beltsville, Md.); host or cells: HEK-293 cells
In words: Competition radioligand binding, h5-HT6.

For experiment [2], the target named is T3, human D2S dopamine (hD2S-DA) receptors (Homo sapiens, UniProt P14416).
T3 construct: purchased Receptor Biology, Inc. (Beltsville, Md.); host or cells: A9 L cells
The experiment can be described thus: Competition radioligand binding, hD2S dopamine.

In another experiment the target is T4, human 5HT2a receptors (Homo sapiens, UniProt P28223).
T4 construct: expressed in transfected cells; host or cells: CHO K1 cells
The experiment can be described thus: Competition radioligand binding, 5-HT2A. How it is done: as §1, §2, §3

Experiment [3] concerns the target T5, human 5-HT7B (h5-HT7b) receptors (Homo sapiens, UniProt P34969).
T5 construct: expressed in transfected cells
The experiment can be described thus: Competition radioligand binding, h5-HT7b.
Text: The compounds of the invention interact with 5-HT receptors and show selectivity for 5-HT receptors. The 5-HT receptor binding properties of the compounds are identified by competitive radioligand binding assays wherein membranes prepared from transfected cells expressing the 5-HT receptor subtype of interest. “Binding constants” refers herein to Ki values measured by inhibition of the binding of radiolabelled ligands that are selective for the 5-HT receptor type being studied. For 5-HT7 receptors, Ki values are determined by measuring the inhibition of 5-carboxamidotryptamine (5-CT) binding, wherein 5-HT7 receptors were incubated with the radiolabelled high affinity ligand, 5-carboxamidotryptamine ([^3H]5-CT), in the presence and absence of the compounds of the invention, at varying concentrations. The compounds of the invention have high binding affinity for serotonin receptors as measured by dissociation constant Ki. […] “Selectivity” for receptor type, in the context of this invention, refers to the ratio of binding constants for the two receptor types being compared. […] The compounds of the present invention preferably show selectivity for 5-HT7 receptors over other serotonin receptor subtypes of greater than about 100. The compounds of the present invention also preferably show selectivity for 5-HT7 receptors over other receptor types, such as dopamine D2, of greater than about 100.
as §1
as §2, with “counter. […]” for “counter.”

[4] abbreviates: [3H]5-CT, membranes of CHO K1 cells, read-out: Ki 5-HT1A.
Where [5] appears, read: [3H]LSD, membranes of HEK-293 cells, read-out: Ki 5-HT6.
The mark [6] stands for this setting: [3H]Spiperone, membranes of A9 L cells, read-out: Ki D2.
The mark [7] stands for this setting: [3H]Ketanserin, membranes of CHO K1 cells, read-out: Ki 5-HT2A.
Where [8] appears, read: [3H]5-CT, membranes of HEK 293 cells, read-out: Ki 5-HT7.

Like-named read-outs stand apart in the source and are kept apart here.

T4 sequence (P28223 whole entry): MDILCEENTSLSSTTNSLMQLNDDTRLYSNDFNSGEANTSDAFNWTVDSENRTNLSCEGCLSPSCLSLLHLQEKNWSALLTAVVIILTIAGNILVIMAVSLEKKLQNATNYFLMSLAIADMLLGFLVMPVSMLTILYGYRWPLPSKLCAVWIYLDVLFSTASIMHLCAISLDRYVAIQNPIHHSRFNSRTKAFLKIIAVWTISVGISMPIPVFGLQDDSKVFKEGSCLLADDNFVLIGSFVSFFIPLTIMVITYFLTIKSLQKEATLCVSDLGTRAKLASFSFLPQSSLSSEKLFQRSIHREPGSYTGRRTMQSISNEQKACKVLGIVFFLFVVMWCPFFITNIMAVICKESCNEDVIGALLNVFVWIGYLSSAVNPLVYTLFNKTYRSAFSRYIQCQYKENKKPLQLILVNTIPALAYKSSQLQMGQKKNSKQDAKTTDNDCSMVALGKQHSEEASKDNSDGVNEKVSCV
T3 sequence (P14416 1-414 isoform P14416-2): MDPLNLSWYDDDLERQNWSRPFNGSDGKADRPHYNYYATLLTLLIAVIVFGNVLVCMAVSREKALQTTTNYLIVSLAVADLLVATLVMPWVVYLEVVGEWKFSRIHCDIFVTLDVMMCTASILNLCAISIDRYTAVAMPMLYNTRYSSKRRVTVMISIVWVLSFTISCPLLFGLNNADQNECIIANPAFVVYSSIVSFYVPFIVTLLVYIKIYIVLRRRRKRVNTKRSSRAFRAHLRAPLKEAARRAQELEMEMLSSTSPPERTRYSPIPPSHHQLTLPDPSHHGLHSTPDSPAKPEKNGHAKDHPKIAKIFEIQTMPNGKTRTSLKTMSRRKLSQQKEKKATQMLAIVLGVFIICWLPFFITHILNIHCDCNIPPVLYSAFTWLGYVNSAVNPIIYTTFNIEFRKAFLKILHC
T5 sequence (P34969 1-432 limits assumed): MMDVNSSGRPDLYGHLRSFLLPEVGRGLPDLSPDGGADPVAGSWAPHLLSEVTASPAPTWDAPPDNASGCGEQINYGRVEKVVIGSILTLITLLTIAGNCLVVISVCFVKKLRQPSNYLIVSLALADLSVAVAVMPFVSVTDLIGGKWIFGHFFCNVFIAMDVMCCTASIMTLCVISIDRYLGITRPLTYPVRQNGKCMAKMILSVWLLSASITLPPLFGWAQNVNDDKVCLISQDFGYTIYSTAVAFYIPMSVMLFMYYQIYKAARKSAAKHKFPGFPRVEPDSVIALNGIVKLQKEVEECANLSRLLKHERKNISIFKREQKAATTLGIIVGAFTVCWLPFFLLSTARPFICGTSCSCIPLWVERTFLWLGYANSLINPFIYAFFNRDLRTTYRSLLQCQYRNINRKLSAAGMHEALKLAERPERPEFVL
T2 sequence (P50406 whole entry): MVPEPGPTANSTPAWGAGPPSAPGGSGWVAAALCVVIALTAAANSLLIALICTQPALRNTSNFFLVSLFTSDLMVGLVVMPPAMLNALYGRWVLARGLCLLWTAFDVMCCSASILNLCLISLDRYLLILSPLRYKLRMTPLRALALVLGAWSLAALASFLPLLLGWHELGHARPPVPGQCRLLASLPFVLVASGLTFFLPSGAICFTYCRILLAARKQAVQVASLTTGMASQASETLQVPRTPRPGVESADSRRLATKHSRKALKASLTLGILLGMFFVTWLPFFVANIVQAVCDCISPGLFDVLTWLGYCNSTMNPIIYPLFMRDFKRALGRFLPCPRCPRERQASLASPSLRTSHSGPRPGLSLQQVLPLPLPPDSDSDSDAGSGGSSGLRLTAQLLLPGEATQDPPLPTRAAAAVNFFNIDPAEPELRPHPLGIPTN

As a reminder, the Ki is a measure of affinity in units of concentration, obtained from inhibition or displacement. On to `N=C(NCc1cccc2ccccc12)NC(=O)NC[C@@H]1CCCC[C@@H]1O` [Example 41, 1-({[([({[(1S,2S)2-Hydroxycyclohexyl]methyl}amino)carbonyl]amino}(imino)methyl]amino}methyl)naphthalene], for which the Ki is 54 nM on human 5-HT1a receptors (setting [4]); 340 nM in experiment [1] (setting [5]); 1070 nM in experiment [2] (setting [6]); 2 nM on human 5HT2a receptors (setting [7]); 8.9 nM in experiment [3] (setting [8]).
For `N=C(NCc1cccc2ccccc12)NC(=O)NCc1cccnc1` [Example 18, 3-({[({Imino[(1-naphthylmethyl)amino]methyl}amino)carbonyl]amino}methyl)pyridine], the Ki in experiment [1] (setting [5]) was determined as 350 nM; in experiment [2] (setting [6]), 1030 nM; on human 5HT2a receptors (setting [7]), 0.43 nM; in experiment [3] (setting [8]) it was 17 nM.
With `N=C(NCc1cccc2ccccc12)NC(=O)N[C@H](CO)c1ccccc1` [Example 15, 1-({[[({[(1S)-2-Hydroxy-1-phenylethyl]amino}carbonyl)amino](imino)methyl]amino}methyl)naphthalene], the Ki in experiment [1] (setting [5]) came out at 170 nM; in experiment [2] (setting [6]), 290 nM; at human 5HT2a receptors (setting [7]) it was 0.4 nM; in experiment [3] (setting [8]), 2.6 nM.
In the case of `N=C(NCc1cccc2ccccc12)NC(=O)NCC1CCN(Cc2ccc([N+](=O)[O-])cc2)CC1` [Example 60, 4-({[({Imino[(1-naphthylmethyl)amino]methyl}amino)carbonyl]amino}methyl)-1-(4-nitrobenzyl)piperidine], the Ki at human 5-HT1a receptors (setting [4]) worked out at 68 nM; in experiment [1] (setting [5]), 3470 nM; in experiment [2] (setting [6]), 1870 nM; at human 5HT2a receptors (setting [7]) it was 16 nM; in experiment [3] (setting [8]) it was 51 nM.
On the same counts, the results for `N=C(NCc1cccc2ccccc12)NC(=O)NCC1CCN(Cc2ccc(F)cc2F)CC1` [Example 67] are 500 nM, 2860 nM, more than 2500 nM, 6.4 nM and 32 nM.
Regarding `N=C(NCCc1ccccc1)NC(=O)N1CCN(Cc2ccccc2)CC1` [Example 61, N-[(4-Benzyl-1-piperazinyl)carbonyl]-N′-phenethylguanidine], the Ki is 930 nM at human 5-HT1a receptors (setting [4]), more than 2500 nM in experiment [2] (setting [6]), 1800 nM at human 5HT2a receptors (setting [7]) and 490 nM in experiment [3] (setting [8]).
As to `Cc1ccc(CN2CCC(CNC(=O)NC(=N)NCc3cccc4ccccc34)CC2)cc1` [Example 76, 4-({[({Imino[(1-naphthylmethyl)amino]methyl}amino)carbonyl]amino}methyl)-1-(4-methylbenzyl)piperidine], the Ki at human 5-HT1a receptors (setting [4]) stood at 550 nM; in experiment [1] (setting [5]), 3380 nM; in experiment [2] (setting [6]) it was 1900 nM; on human 5HT2a receptors (setting [7]), 6.8 nM; in experiment [3] (setting [8]), 46 nM.
On the same counts, the results for `CC(=O)Nc1ccc(CN2CCC(CNC(=O)NC(=N)NCc3cccc4ccccc34)CC2)cc1` [Example 70, N-(4-{[4-({[({Imino[(1-naphthylmethyl)amino]methyl}amino)carbonyl]amino}methyl)-1-piperidinyl]methyl}phenyl)acetamide] are 110 nM, 2430 nM, 2450 nM, 0.55 nM and 16 nM.
For `COc1cccc(OC)c1CNC(=N)NC(=O)N1CCC(Nc2ccccc2)CC1` [Example 81, N-[(4-Anilino-1-piperidinyl)carbonyl]-N′-(2,6-dimethoxybenzyl)guanidine], the Ki at human 5-HT1a receptors came to 2940 nM; in experiment [1], 4700 nM; in experiment [2], 1920 nM; at human 5HT2a receptors it was 180 nM; in experiment [3], 66 nM.
As for `N=C(NCc1ccccc1-c1ccccc1)NC(=O)N1CCC(Nc2ccccc2)CC1` [Example 79, N-[(4-Anilino-1-piperidinyl)carbonyl]-N′-([1,1′-biphenyl]-2-ylmethyl)guanidine], the Ki at human 5-HT1a receptors is more than 4000 nM; in experiment [1], 2400 nM; in experiment [2], more than 2500 nM; at human 5HT2a receptors, 910 nM; in experiment [3], 99 nM.
Consider `Cc1cccc(CN2CCC(CNC(=O)NC(=N)NCc3cccc4ccccc34)CC2)c1` [Example 72, 4-({[({Imino[(1-naphthylmethyl)amino]methyl}amino)carbonyl]amino}methyl)-1-(3-methylbenzyl)piperidine], for which the Ki worked out at 420 nM on human 5-HT1a receptors (setting [4]); 880 nM in experiment [1] (setting [5]); 880 nM in experiment [2] (setting [6]); 5.3 nM at human 5HT2a receptors (setting [7]); 15 nM in experiment [3] (setting [8]).
`CCOc1ccccc1CNC(=N)NC(=O)NC` [Example 84, 1-Ethoxy-2-{[(imino{[(methylamino)carbonyl]amino}methyl)amino]methyl}benzene]: the Ki on human 5-HT1a receptors (setting [4]) is more than 4000 nM; in experiment [1] (setting [5]), 8660 nM; in experiment [2] (setting [6]), more than 2500 nM; at human 5HT2a receptors (setting [7]), 400 nM.
Regarding `N=C(NCc1cccc2ccccc12)NC(=O)NCC1CCN(Cc2cccc(C(F)(F)F)c2)CC1` [Example 57, 4-({[({Imino[(1-naphthylmethyl)amino]methyl}amino)carbonyl]amino}methyl)-1-[3-(trifluoromethyl)benzyl]piperidine], the results for the inhibition constant Ki (in experiment [2] (setting [6]); at human 5HT2a receptors (setting [7]); in experiment [3] (setting [8])) were 1570 nM, 130 nM and 59 nM, respectively.
